The test system of one data set is HL-60 cells. Nature of the data set: Toxicity assay of chemotherapeutic agents, HL-60 cells (PrestoBlue viability). It counts as cell-based, human. As for the experimental part: HL-60 cells (ATCC®, cat. no. CCL-240™), derived from human promyelocytic leukemia, were cultured in Iscove's Modified Dulbecco's Medium (Gibco, Life Technologies) supplemented with 20% heat inactivated FBS (Gibco, Life Technologies).
For toxicity assay, HL-60 cells were seeded for 7500 cells/well of 96-well plate. The chemotherapeutic agents were added as 2-fold stock solutions and incubated with cells for 5 days.
All other compounds were tested at concentrations 0.1, 1, 10, 100, 1000, and 10 000 nM. […] The percentage of viable cells was calculated by dividing the sample absorbance value with untreated cell control value and multiplying by 100%.
All compounds were tested at concentrations of 0.1-10 000 nM.
IC50 values were determined after average % and standard deviations were transferred to GraphPad Prism 9.1.2. Dose-response curves were generated and the IC50% values of the samples were obtained by non-linear regression analysis (Inhibitor vs. response, variable slope (four parameters)) using the software.

In another data set the test system is KG-1 cells. Description: Toxicity of chemotherapeutic agents, KG-1 cells (PrestoBlue viability). The note with it: 4 days. It is filed as cell-based. As for the experimental part:
Toxicity of chemotherapeutic agents was tested with high CD33-positive KG-1 cell line (DSMZ-German Collection of Microorganisms and Cell Cultures; Cat. No. ACC 14). KG-1 cells were seeded to non-treated 96-well plate 15000 cells/well and diluted compounds were added to cells in duplicates. Dilution series (1:10) of compounds were prepared starting from 20 μM to 0.2 nM and when added to cells they diluted 2× more. Cell control was untreated cells in culture medium.
Cells with chemotherapeutic agents were cultured for 4 days and then the viability was measured with PrestoBlue cell viability reagent according to the manufacturer's (Life Technologies) instructions. Results were calculated from 5-hour Prestoblue reaction and the percentage of viable cells was calculated by dividing the sample absorbance value with cell control value.

For data set [1], the system named is MOLM-13 cells. Description: Toxicity assay of chemotherapeutic agents, MOLM-13 cells (PrestoBlue viability). It counts as cell-based, human. The note with it: 4 days. As for the experimental part:
For toxicity assay, MOLM-13 cells were seeded for 10 000 cells/well of 96-well plate. The tested chemotherapeutic agents were added as 2-fold stock solutions and incubated in duplicate with cells for 4 days. The compounds were tested at concentrations 0.1, 1, 10, 100, 1000, and 10 000 nM. […] After 4 days incubation, the viability of the cells was determined with PrestoBlue Cell Viability Reagent (Life Technologies) according to the manufacturer's instructions. The percentage of viable cells was calculated by dividing the sample absorbance value with untreated cell control value and multiplying by 100%.

A further data set deals with patient lymphocytes. Description: Ex vivo AML patient samples, viable lymphocytes by flow cytometry, 5-day assay. The note with it: CD33-negative lymphocytes in AML patient samples, five days. Here is the method: (§1) AML cells were rapidly thawed in a 37° C. water bath and treated with Denarase (250 U/μl). The cells were cultured in SFEM II medium ([…] Technologies) supplemented with 20 ng/ml SCF, 20 ng/ml TPO, and 20 ng/ml FLT3-L. The compounds were added the same day to 96-well conical bottom plates at seven different concentrations using an acoustic liquid handling device (Echo 550, Labcyte Inc), on top of 10 μl of culturing medium/well. A total of 100,000 cells were seeded per well in a volume of 100 μl. […] All antibodies were obtained from BD biosciences and used at a dilution of 1:100, except CD3 in 1:50. Following a 20-minute incubation with the antibodies, the cells were centrifuged, and 25 μl of Annexin-V and 7-AAD mixture, both diluted 1:50 in Annexin V binding buffer, were added to each well. After a 10-minute incubation, the total number of viable blasts (CD34 or CD117), lymphocytes (CD3) and CD33-positive cells in each well was counted using Forecyte software (Sartorius) and normalized to DMSO control containing wells.
(§2) The AML samples were exposed to LNAuM, lintuzumab, MMAU, or gemtuzumab ozogamicin (GO; Mylotarg, Pfizer) for five days, after which remaining viable blast and lymphocytes were quantified using flow cytometry. […] Subsequently, we assessed toxicity against lymphocytes (CD33-negative) in the same samples.
Background: A flow cytometer gives signals particle by particle.

The next data set concerns patient blasts. Nature of the data set: Ex vivo AML patient samples, viable blasts by flow cytometry, 5-day assay. It is filed as cell-based, human. The note with it: five days; for activity against blasts: AML patient samples; for IC50: six AML patient samples, read-out: median IC50 (absolute) against blasts. As for the experimental part: as §1, §2
Data set [2] has as its system MOLM-13 cells. Nature of the data set: MOLM-13 cell mouse xenograft efficacy study. The settings on record: for toxicity in mice: clinical signs, general behavior, macroscopic changes in major organs; for Average tumor size / Tumor size of individual mice / TGI (average tumor size compared to Vehicle): day 15 after tumor inoculation, combination of the two; for Average tumor size / Tumor size of individual mice: LNAuM 0.3 mg/kg single dose i.v., venetoclax 100 mg/kg p.o. daily; for TGI (average tumor size compared to Vehicle): LNAuM 0.3 mg/kg single dose.

The mark [3] stands for this setting: Homo sapiens, 120 h, HL-60 cells, 5 days incubation, read-out: IC50.

Where “and” joins values, the source holds several entries; their conditions need not be identical. Equal entries are not always repeated. Structures can show the parent of a compound that is named as a salt. Where two headings read alike, the source gives them in different places.

Regarding `Nc1ccn([C@@H]2O[C@H](CO)[C@@H](O)[C@@H]2O)c(=O)n1` [Cytarabine], the IC50 – broadly, the concentration at which inhibition is half-maximal – with HL-60 cells (setting [3]) was 0.298 µM; with KG-1 cells (Homo sapiens, 96 h), 0.23 µM; in the data set on MOLM-13 cells [1] (Homo sapiens, 96 h), 0.112 µM.

Regarding `COc1cccc2c1C(=O)c1c(O)c3c(c(O)c1C2=O)C[C@@](O)(C(C)=O)C[C@@H]3O[C@H]1C[C@H](N)[C@H](O)[C@H](C)O1` [Daunorubicin-HCl], the IC50 with HL-60 cells (Homo sapiens, HL-60, 120 h) stood at 0.015 µM; in the data set on KG-1 cells (Homo sapiens, 96 h) it was 0.055 µM; in the data set with MOLM-13 cells [1] (Homo sapiens, 96 h), 0.013 µM.

Consider `CCC(C)C(C(CC(=O)N1CCCC1C(OC)C(C)C(=O)NC(C)C(OC1OC(C(=O)O)C(O)C(O)C1O)c1ccccc1)OC)N(C)C(=O)C(NC(=O)C(NC)C(C)C)C(C)C` [MMAU, monomethylauristatin E β-D-glucuronide], for which, in the data set with patient lymphocytes, the “cytotoxic activity against lymphocytes” value is given as “did not exhibit cytotoxic activity”. Also, the activity against blasts entry in the data set with patient blasts was “modest or no activity”.

Regarding `CO[C@@H]1[C@H](N(C)C(=O)c2ccccc2)C[C@H]2O[C@]1(C)n1c3ccccc3c3c4c(c5c6ccccc6n2c5c31)C(=O)NC4` [Midostaurin], inhibition in the data set with MOLM-13 cells [1] (Homo sapiens, 96 h) was half-maximal at 0.014 µM (IC50).

As for `CC1(C)CCC(CN2CCN(c3ccc(C(=O)NS(=O)(=O)c4ccc(NCC5CCOCC5)c([N+](=O)[O-])c4)c(Oc4cnc5[nH]ccc5c4)c3)CC2)=C(c2ccc(Cl)cc2)C1` [Venetoclax], in the data set on MOLM-13 cells [2], the toxicity in mice result was “no toxicity”; the Average tumor size came out at 194 mm^3; the “Tumor size of individual mice” value was 134.946 mm^3 and 184.96 mm^3 and 249.64 mm^3 and 246.895 mm^3 and 122.793 mm^3 and 226.1475 mm^3. Besides, the “TGI (average tumor size compared to Vehicle)” value in the data set on MOLM-13 cells [2] (venetoclax 100 mg/kg) is reported as 0.45. Moreover, in the data set with HL-60 cells (setting [3]), the IC50 was determined as 0.112 µM. Also, the IC50 in the data set on KG-1 cells (Homo sapiens, 96 h) was 2.3 µM. Further, in the data set on MOLM-13 cells [1] (Homo sapiens, 96 h), the IC50 amounted to 0.024 µM.

As for Gilteritinib hemifumarate, the 50% inhibitory concentration (IC50) with HL-60 cells (read-out: IC50) stood at 0.425 µM; in the data set with KG-1 cells, 1.7 µM; in the data set on MOLM-13 cells [1] it was 0.024 µM.

For the molecule “LNAuM: antibody-drug-conjugate (ADC) comprising the lintuzumab antibody, conjugated to MMAU, via a cleavable linker”, the “tumors disappeared and did not regrow during the whole study” value with MOLM-13 cells [2] (LNAuM single dose of 3 mg/kg) was 6/6. The “tumor growth versus control group” value in the data set on MOLM-13 cells [2] (all doses (LNAuM 0.1-3 mg/kg single dose; venetoclax 100 mg/kg, 10 daily doses)) is reported as “inhibited tumor growth”. Moreover, in the data set on MOLM-13 cells [2], the toxicity in mice result is listed as “no toxicity”; the Average tumor size is recorded as 201 mm^3; the “Tumor size of individual mice” value was 204.723 mm^3 and 229.992 mm^3 and 239.704 mm^3 and 153.6 mm^3 and 106.624 mm^3 and 271.472 mm^3. Further, in the data set with MOLM-13 cells [2] (venetoclax 100 mg/kg), the “TGI (average tumor size compared to Vehicle)” value turned out to be 0.46. In addition, the “outcome at study end” value with MOLM-13 cells [2] (day 54 after tumor inoculation, venetoclax 100 mg/kg, LNAuM 1 mg/kg, combination) was “two animals were sacrificed due to tumor growth, and in the rest of the animals there was a palpable tumor”. Moreover, the “cytotoxic activity against lymphocytes” value in the data set with patient lymphocytes was “did not exhibit cytotoxic activity”. In the data set on patient blasts, the IC50 worked out at 0.016 µM.

Turning to gemtuzumab ozogamicin [GO], the “cytotoxic activity against lymphocytes” value in the data set with patient lymphocytes is listed as “significant lymphocyte toxicity”. For the same molecule, the IC50 was found to be 0.009 µM in the data set with patient lymphocytes (read-out: median IC50 against lymphocytes) and 0.0003 µM in the data set on patient blasts.

Regarding “lintuzumab: anti-CD33 antibody comprising the light chain of SEQ ID NO:1 and the heavy chain of SEQ ID NO:2”, the tumor growth inhibition result with MOLM-13 cells [2] (lintuzumab naked antibody 10 mg/kg single dose, non-binding IgG1 ADC control 3 mg/kg single dose) is “only modest tumor growth inhibition”. Moreover, the “cytotoxic activity against lymphocytes” value with patient lymphocytes is “did not exhibit cytotoxic activity”. Also, the activity against blasts entry in the data set with patient blasts was “modest or no activity”.

(Values after US20260207760A1, “COMBINATIONS OF CD33 ANTIBODY DRUG CONJUGATE WITH CHEMOTHERAPEUTIC AGENTS” (Glykos Biomedical Oy, priority 2022, published 2026).)
